Values quoted from earlier work, collected in patent US20180271924A1, “COMPOUND AND METHOD FOR REDUCING INFLAMMATION, PAIN, ALLERGY, FLU AND COLD SYMPTOMS” (priority 2018, published 2018).
Converted amounts (≈) assume the structure as drawn. Like-named read-outs stand apart in the source and are kept apart here.

Experiments:
[1] = subcutaneous
[2] = extract 100, 300, 500 mg/kg
[3] = human studies
[4] = not given; remark: listed apart in the source
[5] = for pain relief, THC versus codeine: 36 cancer pain patients, 20 mg THC, 120 mg codeine
[6] = 50 mg THC daily
[7] = 5 mg THC; for analgesic effect: 50 mg codeine
[8] = not given; remark: listed apart in the source
[9] = not given; remark: listed apart in the source
[10] = tested on: mu-, delta- and kappa-opioid binding sites
ORL1-binding sites = ORL1-binding sites (Cavia porcellus, UniProt P47748)
Chain of ORL1-binding sites (P47748 whole entry): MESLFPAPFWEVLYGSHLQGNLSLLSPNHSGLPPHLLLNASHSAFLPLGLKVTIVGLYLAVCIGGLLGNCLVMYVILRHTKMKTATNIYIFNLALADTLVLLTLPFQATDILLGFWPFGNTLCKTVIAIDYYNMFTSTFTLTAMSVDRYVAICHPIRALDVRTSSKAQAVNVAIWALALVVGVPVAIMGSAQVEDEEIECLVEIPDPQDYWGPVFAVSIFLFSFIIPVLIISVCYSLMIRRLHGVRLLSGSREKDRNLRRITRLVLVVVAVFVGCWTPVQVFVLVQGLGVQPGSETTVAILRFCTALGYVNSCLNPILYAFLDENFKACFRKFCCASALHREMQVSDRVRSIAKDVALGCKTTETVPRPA

ORL1 receptors = target: T1, ORL1 receptors (Cavia porcellus, UniProt P47748); settings: guinea pig small intestine
T1 construct: functional ORL1 receptors in the guinea pig small intestine; from tissue; host or cells: guinea pig small intestine
T1 sequence (P47748 whole entry): as above

mu receptors = target: T2, mu receptors (Rattus norvegicus, UniProt P33535); settings: rat CNS membranes
T2 construct: membranes prepared from rat central nervous system; from tissue; host or cells: rat central nervous system membranes
T2 sequence (P33535 whole entry): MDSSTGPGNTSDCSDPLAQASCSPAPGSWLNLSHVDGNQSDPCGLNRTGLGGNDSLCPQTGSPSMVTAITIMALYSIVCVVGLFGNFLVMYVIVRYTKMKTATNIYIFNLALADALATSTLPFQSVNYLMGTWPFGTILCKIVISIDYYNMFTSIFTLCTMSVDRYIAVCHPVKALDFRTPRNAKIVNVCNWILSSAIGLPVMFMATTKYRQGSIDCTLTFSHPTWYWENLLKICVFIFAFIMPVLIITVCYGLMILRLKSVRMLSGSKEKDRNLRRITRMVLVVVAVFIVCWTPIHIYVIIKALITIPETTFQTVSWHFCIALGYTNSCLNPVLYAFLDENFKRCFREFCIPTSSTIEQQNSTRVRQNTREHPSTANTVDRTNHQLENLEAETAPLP

mu-opioid binding sites = settings: corresponds to K value
kappa receptors = target: T3, kappa receptors (Rattus norvegicus, UniProt P34975); settings: rat CNS membranes
T3 construct: membranes prepared from rat central nervous system; from tissue; host or cells: rat central nervous system membranes
T3 sequence (P34975 whole entry): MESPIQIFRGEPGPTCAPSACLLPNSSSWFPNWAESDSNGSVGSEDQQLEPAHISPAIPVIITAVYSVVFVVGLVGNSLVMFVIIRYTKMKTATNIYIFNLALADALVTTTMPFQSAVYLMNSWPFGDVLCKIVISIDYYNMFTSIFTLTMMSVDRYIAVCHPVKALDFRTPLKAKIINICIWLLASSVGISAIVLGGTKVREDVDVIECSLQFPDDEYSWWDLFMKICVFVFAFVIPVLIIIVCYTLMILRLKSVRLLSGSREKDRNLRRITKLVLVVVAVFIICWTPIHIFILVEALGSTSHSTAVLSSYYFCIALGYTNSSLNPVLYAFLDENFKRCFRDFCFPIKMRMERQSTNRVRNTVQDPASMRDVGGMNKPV

[11] = not given; remark: listed apart in the source
delta opioid receptor = target: T4, delta opioid receptor (Rattus norvegicus, UniProt P33533); settings: rat CNS membranes
T4 construct: membranes prepared from rat central nervous system; from tissue; host or cells: rat central nervous system membranes
T4 sequence (P33533 whole entry): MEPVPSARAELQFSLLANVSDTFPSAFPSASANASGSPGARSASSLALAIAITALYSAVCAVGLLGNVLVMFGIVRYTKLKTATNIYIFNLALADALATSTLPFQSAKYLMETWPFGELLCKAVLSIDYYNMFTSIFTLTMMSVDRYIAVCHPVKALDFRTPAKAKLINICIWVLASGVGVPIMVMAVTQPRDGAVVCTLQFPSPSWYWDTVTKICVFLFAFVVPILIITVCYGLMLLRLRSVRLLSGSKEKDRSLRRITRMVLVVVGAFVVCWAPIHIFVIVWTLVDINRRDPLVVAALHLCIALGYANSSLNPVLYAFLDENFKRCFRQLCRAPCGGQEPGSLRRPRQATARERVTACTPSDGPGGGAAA

[12] = DPPH
[13] = 200 mg/kg
[14] = extract 100, 300, 500 mg/kg; diazepam 0.1-1 mg/kg; caffeine 10, 30, 100 mg/kg
[15] = extract 100, 300, 500 mg/kg; diazepam 0.1-1 mg/kg
[16] = extract 100, 300, 500 mg/kg; diclofenac 10, 30, 100 mg/kg; 20 minutes observation
[17] = extract 100-500 mg/kg; diclofenac 10-100 mg/kg; morphine 1-10 mg/kg
[18] = extract 100, 300, 500 mg/kg; remark: listed apart in the source
[19] = tested on: dividing and non-dividing cells
[20] = 20.0 mg/kg
[21] = 0.5 mg/kg
[22] = for time of peak analgesic effect: pseudoakuammigine 5.0 mg/kg p.o., morphine 1.0 mg/kg s.c., indomethacin 2.5 mg/kg p.o.
[23] = extract 300, 500 mg/kg
[24] = not given; remark: listed apart in the source
[25] = anesthetized rats; reversed by naloxone
[26] = mitragynine 2 mg/mL
[27] = not given; remark: listed apart in the source
[28] = mouse, in vivo
mast cells = settings: induced by compound 48/80

CC[C@@H]1CN2CC[C@@]3(O)C(=Nc4cccc(OC)c43)[C@@H]2C[C@@H]1/C(=C\OC)C(=O)OC [7-hydroxymitragynine]
gastrointestinal transit [1]: inhibition of the gastrointestinal transit

CN1[C@@H]2CC[C@H]1C[C@@H](OC(=O)C(CO)c1ccccc1)C2 (stereo partly drawn) [Atropine]
protection against acetylcholine-induced bronchoconstriction and cough [2]: significantly (P<0.05-0.0001) protected

C=C(C)[C@@H]1CCC(C)=C[C@H]1c1c(O)cc(CCCCC)cc1O [CBD, cannabidiol]
effectiveness at inhibition of PBQ-induced writhing (oral, 100 mg/kg): most effective

CCCCCc1cc(O)c2c(c1)OC(C)(C)c1ccc(C)cc1-2 [CNB, cannabinol]
inhibition of PBQ-induced writhing (doses higher than 10 mg/kg): 40%

CCCCCc1cc(O)c2c(c1)OC(C)(C)[C@@H]1CCC(C)=C[C@@H]21 [Delta 1-THC]
dose of maximal effect in the PBQ test (oral): 10 mg/kg

CC(=O)Oc1cc(O[C@H](C)CCCc2ccccc2)cc2c1[C@@H]1C[C@H](O)CC[C@H]1[C@H](C)N2 [Levonantradol]
analgesia versus placebo [3]: superior to placebo | sedation [3]: almost half the patients reported sedation | pain relief versus placebo ([4]; 1.5, 2, 2.5, 3 mg intramuscular, 56 patients): all doses were significantly superior to placebo | patients reporting at least one side-effect ([4]; in vivo): 57%

CCCCCc1cc(O)c2c(c1)OC(C)(C)[C@@H]1CCC(C)=C[C@@H]21 [THC, delta-9-tetrahydrocannabinol]
analgesia versus placebo [3]: significantly superior to placebo | time of peak analgesia [3]: around 5 hours | pain relief versus placebo ([5]; 10 cancer pain patients, at doses of 15 and 20 mg): pain relief significantly superior to placebo | pain relief, THC versus codeine [5]: equally effective | morphine requirement [6]: morphine requirement was significantly reduced (P<0.01) | effect on spasticity [7]: significant effect on spasticity | analgesic effect [7]: analgesic effect in comparison with placebo

COc1ccc2cc3[n+](cc2c1OC)CCc1cc2c(cc1-3)OCO2 [Umbellatine, umbellatine]
analgesic activity, tail-flick ([8]; 100 mg/kg): clearly active | analgesic activity, tail-flick ([8]; 200 and 300 mg/kg): comparable in efficacy to those of 6 mg/kg of morphine | analgesic activity, hot plate ([9]; 10-300 mg/kg): dose-dependently active | analgesic activity, hot plate ([9]; 200 and 300 mg/kg): comparable in efficacy to that obtained with 6 mg/kg of morphine

COC(=O)C1=CO[C@@H](C)[C@@H]2CN3CCc4c([nH]c5ccccc45)[C@H]3C[C@H]12 [akuammigine]
opioid binding (words) [10]: no opioid binding | opioid binding (words) ([10]; listed as Akuammigine): no affinity for any of the opioid binding sites

C/C=C1/CN2CC[C@@]34c5cc(O)ccc5N(C)[C@]35OC[C@@]4(C(=O)OC)[C@H]1C[C@H]25 [akuammine]
affinity for ORL1-binding sites (words) (ORL1-binding sites): neither akuammine nor any of the other alkaloids showed appreciable affinity | affinity for ORL1-binding sites (words) (ORL1-binding sites; listed as Akuammine): little affinity | opioid binding (words) [10]: low affinity | character at opioid receptors (opioid receptors): opioid antagonist | antagonism of nociceptin at functional ORL1 receptors (ORL1 receptors): does not antagonize nociceptin | affinity for mu receptors (mu receptors): micromolecular affinities | affinity (mu-opioid binding sites): 2.1 mM⁻¹ | affinity for kappa receptors (kappa receptors): micromolecular affinities | solubility in water [11]: slightly soluble in water | affinity for delta opioid receptor relative to kappa and mu (delta opioid receptor): ten times lower

O=C1O[C@H]([C@@H](O)CO)C(O)=C1O [ascorbic acid]
EC50 (free radical scavenging) [12]: 1.07 µg/mL (≈ 6.08 µM)

CC(=O)Oc1ccccc1C(=O)O [aspirin]
mean percentage antipyrexia [13]: 29.0%

Cn1c(=O)c2c(ncn2C)n(C)c1=O [caffeine]
effect in open arm test [14]: anxiogenic effect

COc1ccc2c3c1O[C@H]1[C@@H](O)C=C[C@H]4[C@@H](C2)N(C)CC[C@@]341 [codeine]
pain relief, THC versus codeine [5]: equally effective | analgesic effect [7]: analgesic effect in comparison with placebo

CN1C(=O)CN=C(c2ccccc2)c2cc(Cl)ccc21 [diazepam]
frequency of central zone entries [15]: dose dependently increased the frequency of central zone entries | effect in open arm test [14]: dose dependently and significantly increased the percentage of open arm entries

O=C(O)Cc1ccccc1Nc1c(Cl)cccc1Cl [diclofenac]
abdominal writhes [16]: suppressed the writhing | tail withdrawal latency / antinociceptive effect [17]: increased tail withdrawal latencies

COc1ccc2c3c1O[C@H]1[C@@H](O)CC[C@H]4[C@@H](C2)N(C)CC[C@@]341 [dihydrocodeine]
cough count [18]: dose-dependently reduced (P<0.05) cough count | latency of cough [18]: increased significantly (P<0.01) the latency of cough

CN1CC[C@]2(c3cccc4c3N[C@@H]3N(C)CC[C@]43[C@@]34CCN(C)[C@@H]3Nc3ccccc34)c3ccccc3N[C@H]12 [hodgkinsine]
cytotoxicity [19]: low cytotoxicity | analgesic activity, hot-plate [20]: comparable with 6.0 mg/kg of morphine | analgesic activity, tail-flick [21]: comparable to that of 6.0 mg/kg of morphine

COc1ccc2c(c1)c(CC(=O)O)c(C)n2C(=O)c1ccc(Cl)cc1 [indomethacin, reference compound]
ED50 (analgesic) ([22]; on molar basis): 6.3 muM | time of peak analgesic effect [22]: 60 min

COc1ccc(CN(CCN(C)C)c2ccccn2)cc1 [mepyramine]
histamine-induced bronchoconstriction and cough [23]: reduced significantly (P<0.01-0.0001) bronchoconstriction and cough induced by histamine

CC[C@@H]1CN2CCc3c([nH]c4cccc(OC)c34)[C@@H]2C[C@@H]1/C(=C\OC)C(=O)OC [mitragynine]
toxicity ([24]; dose levels of 800-900 mg/kg in rodents): no toxicity | lethality ([24]; oral 200 mg/kg, rats): lethal effects | gastric acid secretion [25]: inhibition of 2-deoxy-D-glucose-stimulated gastric acid secretion in a dose dependent manner | nerve conduction, compound nerve action potential [26]: blocked the nerve conduction

CN1CC[C@]23c4c5ccc(O)c4O[C@H]2[C@@H](O)C=C[C@H]3[C@H]1C5 [morphine, reference compound]
ED50 (analgesic) ([22]; on molar basis): 2.9 muM | time of peak analgesic effect [22]: 30 min | tail withdrawal latency / antinociceptive effect [17]: significant (P<0.0001) dose dependent increase in tail withdrawal latencies

CCCCCc1cc(O)cc(O)c1 [olivetol]
dose of maximal effect in the PBQ test (oral): about 100 mg/kg

C/C=C1/CN2CC[C@@]34c5ccccc5N(C)[C@]35OC[C@@]4(C(=O)OC)[C@H]1C[C@H]25 [pseudoakuammigine]
affinity for ORL1-binding sites (words) (ORL1-binding sites): little affinity | opioid binding (words) [10]: low affinity | opioid binding (words) ([10]; listed as Pseudoakuammigine): bound equally to both mu and delta-opioid binding sites | ED50 (analgesic) ([22]; on molar basis): 10 muM | times less potent than indomethacin as an analgesic ([22]; on molar basis): 1.6 times | times less potent than morphine as an analgesic ([22]; on molar basis): 3.5 times | time of peak analgesic effect [22]: 180 min | effect on electrically-induced contractions (opioid receptors; antagonised by naloxone): inhibited the electrically-induced contractions | maximal inhibitory effect (anti-inflammatory) ([27]; 50 mg kg, p.o.): 44% | activity on carrageenan-induced paw oedema ([27]; 1.0, 5.0, 50 mg/kg p.o.): dose-dependent inhibitory activity

O=C(O)c1cc(=O)c2c(OCC(O)COc3cccc4oc(C(=O)O)cc(=O)c34)cccc2o1 [sodium cromoglicate]
tracheal phenol red secretion (muco-suppressant) [28]: caused a reduction (P<0.01) in tracheal phenol red secretion | mast cell degranulation (mast cells): reduce significantly (P<0.01) mast cell degranulation
